Assay results as given in patent publication US7666901B2, “Analogs of 17-hydroxywortmannin as PI3K inhibitors” (Wyeth, priority 2004, dated 2010).

Assays:
[1] = system: panel of seven colon tumor lines; test: Tumor cell growth assay, combination with MEK inhibitor, colon panel; assay type: cell-based, human
Protocol: (§1) Human tumor cell are all obtained from ATCC, and are cultured using standard cell culture methods. Cells are plated in 96-well culture plates at 1000 to 3000 cells per well. One day following plating, cells are treated with various doses of PI3K inhibitor Compound 4 or Compound 5 alone or with a low constant dose of MEK inhibitor 2-(2-chloro-4-iodoanilino)-N-(cycloprorylmethoxy-3,4-difluobenzamide) (1 μg/ml) or UO126 (5 μg/ml). UO126 is also known as 1,4-diamino-2,3-dicyano-1,4-bis[2-aminophenylthio]butadiene. In some experiments, cells are treated alone with various doses of the MEK inhibitor (2-(2-chloro-4-iodoanilino)-N-(cycloprorylmethoxy-3,4-difluobenzamide)), or HER2/neu inhibitor HKI-272, or mTOR inhibitor CCI-779, or with a low constant dose of Compound 4 (0.1 μg/ml). […] Three days after drug treatment, viable cell densities are determined by metabolic conversion (by viable cells) of the dye MTS, an established cell proliferation assay. […] The MTS assay results are read in a 96-well plate reader by measuring absorbance at 490 nm. The effect of each treatment is calculated as percent of control growth relative to the vehicle DMSO-treated cells grown in the same culture plate. […]

[2] = system: DU145 prostrate tumor cells; test: Tumor cell growth assay, combination with MEK inhibitor, DU145; assay type: cell-based, human
Protocol: as §1

colon tumor cell lines = test: Tumor cell growth assay, combination with CCI-779, colon lines; assay type: cell-based, human; settings: compound 4 at 0.1 μg/ml
Protocol: as §1

[3] = system: PTEN-negative breast tumor cell lines; test: Tumor cell growth assay, combination with CCI-779, PTEN-negative breast lines; assay type: cell-based, human; settings: compound 4 at 0.1 μg/ml
Protocol: as §1

Human TOR = target: T1, Human TOR (Homo sapiens, UniProt P42345); test: Human TOR (mTOR) kinase assay, DELFIA format; assay type: biochemical
T1 construct: FLAG
How it was run: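 Purified FLAG-TOR (800 ng/mL) phosphorylates His6-S6K ([…]) with […] ATP in Hepes pH 7.4 buffer containing MnCl2, 2 h at room temperature. Phospho-Thr389 S6K detected by DELFIA using Europium-labelled anti-P(T389)-p70S6K antibody; enzyme inhibition calculated from signal.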

[4] = system: DU145 (human prostate carcinoma/lymphocytic leukemia); test: Cell proliferation (MTS) assay, DU145; assay type: cell-based; settings: three days treatment
How it was run: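 Cells plated at about 3000 per well in RPMI-1640/10% FBS were dosed with compound one day later. Viability was read by MTS conversion (absorbance 490 nm, 1–2 h) three days after treatment began. Effect is expressed as percent of vehicle-treated growth on the same plate.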

## COC[C@H]1OC(=O)/C(=C/N(CCO)C(C)(C)C)C2=C(O)C(=O)C3=C([C@H](OC(C)=O)C[C@@]4(C)C3CC[C@@H]4O)[C@]21C (stereo partly drawn) [Compound 4, (1E,4S,4aR,5R,6aS,7S)-1-{[tert-butyl(2-hydroxyethyl)amino]methylene}-7,11-dihydroxy-4-(methoxymethyl)-4a,6a-dimethyl-2,10-dioxo-1,2,4,4a,5,6,6a,7,8,9,9a,10-dodecahydroindeno[4,5-h]isochromen-5-yl acetate]
[1]
  growth inhibition in combination with MEK inhibitor 2-(2-chloro-4-iodoanilino)-N-(cycloprorylmethoxy-3,4-difluobenzamide): synergistic growth inhibition
[2]
  growth inhibition in combination with MEK inhibitor 2-(2-chloro-4-iodoanilino)-N-(cycloprorylmethoxy-3,4-difluobenzamide): synergistic growth inhibition
Colon tumor cell lines
  growth inhibition in combination with mTOR inhibitor CCI-779: synergistically inhibited growth
[3]
  growth inhibition in combination with mTOR inhibitor CCI-779: additive growth inhibition
[3]; listed as compound 4
  growth inhibition in combination with mTOR inhibitor CCI-779: synergistically inhibited growth
Human TOR; Table 1
  TOR IC50: 16 µg/mL
Human TOR; Table 2
  TOR IC50: >10 µg/mL
[4]; Table 1
  DU145 IC50: 1.5 µg/mL
[4]; Table 2
  DU145 IC50: 1 µg/mL
